Laboratory results taken from publication PMC11856932, “Aeromonas hydrophila CobQ is a new type of NAD^+- and Zn^2+-independent protein lysine deacetylase” (eLife, 2025).

How the values were obtained:
Assay type in all cases: biochemical
ICD = target: T1, ICD (Aeromonas hydrophila, UniProt A0KI74); test: NADPH formation, absorbance at […] nm; conditions: 0.5 mM NADP, 1.5 mM isocitrate, 3 mM MgCl2, 100 mM Tris-HCl pH 8.0, 10% glycerol
T1 construct: recombinant, pET-21b vector, E. coli BL21(DE3), Ni-NTA purified; non-acetylated form
T1 sequence (A0KI74 1-417): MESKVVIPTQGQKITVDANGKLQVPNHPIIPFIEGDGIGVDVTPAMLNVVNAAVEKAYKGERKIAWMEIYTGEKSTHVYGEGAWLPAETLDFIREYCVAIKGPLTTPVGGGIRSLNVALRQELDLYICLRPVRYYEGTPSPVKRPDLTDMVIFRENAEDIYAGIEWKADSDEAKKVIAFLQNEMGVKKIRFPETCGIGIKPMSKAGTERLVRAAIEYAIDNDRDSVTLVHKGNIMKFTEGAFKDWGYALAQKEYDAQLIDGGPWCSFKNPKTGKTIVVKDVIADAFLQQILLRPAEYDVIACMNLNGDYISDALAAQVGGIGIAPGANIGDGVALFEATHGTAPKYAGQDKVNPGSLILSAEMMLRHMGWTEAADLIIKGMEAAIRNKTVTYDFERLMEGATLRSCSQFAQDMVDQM

AhCobB [1] = target: T2, AhCobB (Aeromonas hydrophila, UniProt A0KKN9); test: deacetylation of Kac-BSA, anti-Kac western blot; conditions: 0.25 mM NAD+ as co-substrate; 150 mM Tris-HCl pH 8.0, 10% glycerol, 37 °C, 3 h
T2 construct: gene cobB; recombinant, pET-21b/32a vector, E. coli BL21(DE3), Ni-NTA purified
T2 sequence (A0KKN9 1-257): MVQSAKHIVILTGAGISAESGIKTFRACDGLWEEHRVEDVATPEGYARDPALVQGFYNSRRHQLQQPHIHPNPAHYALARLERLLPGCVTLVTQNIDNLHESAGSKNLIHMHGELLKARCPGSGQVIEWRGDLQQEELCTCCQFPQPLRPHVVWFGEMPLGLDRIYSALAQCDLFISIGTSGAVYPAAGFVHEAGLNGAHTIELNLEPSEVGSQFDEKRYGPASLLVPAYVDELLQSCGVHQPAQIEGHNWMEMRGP

AhCobB [2] = target: T2, AhCobB; test: deacetylation of Kac-BSA, anti-Kac western blot; conditions: 0.5 mM NAM; 150 mM Tris-HCl pH 8.0, 10% glycerol, 37 °C, 3 h; inhibitor

NC(=O)c1ccc[n+]([C@@H]2O[C@H](COP(=O)(O)OP(=O)(O)OC[C@H]3O[C@@H](n4cnc5c(N)ncnc54)[C@H](OP(=O)(O)O)[C@@H]3O)[C@@H](O)[C@H]2O)c1 [NADP^+]
NADPH formation, absorbance at 340 nm (ICD): The enzymatic activity of ICD was detected by measuring the amount of NADPH generated

NC(=O)c1ccc[n+]([C@@H]2O[C@H](COP(=O)(O)OP(=O)(O)OC[C@H]3O[C@@H](n4cnc5c(N)ncnc54)[C@H](O)[C@@H]3O)[C@@H](O)[C@H]2O)c1 [NAD^+]
deacetylation of Kac-BSA, anti-Kac western blot (AhCobB [1]): AhCobB and AhAcuC significantly deacetylated Kac-BSA in the presence of NAD^+ or Zn2 ^+ buffer

NC(=O)c1cccnc1 [nicotinamide]
inhibition (AhCobB [2]): the KDAC activity of AhCobB was inhibited when the sirtuin inhibitor nicotinamide (NAM) was added
